Source: patent US9926297B2, “Bicyclic AZA compounds as muscarinic M1 receptor and/or M4 receptor agonists” (Heptares Therapeutics Limited, priority 2014, dated 2018)

Experiments:
[1] = target: T1, human muscarinic M1 receptor (Homo sapiens, UniProt P11229); test: Alphascreen Surefire phospho-ERK1/2 functional assay, M1; format: cell-based; settings: for EC50: CHO cells stably expressing human M1, phospho-ERK1/2, * = variable results, read-out: pEC50 M1 (converted); for Emax: CHO, read-out: % Emax cf. ACh, M1, CHO cells stably expressing human M1, relative to ACh
T1 sequence (P11229 1-460): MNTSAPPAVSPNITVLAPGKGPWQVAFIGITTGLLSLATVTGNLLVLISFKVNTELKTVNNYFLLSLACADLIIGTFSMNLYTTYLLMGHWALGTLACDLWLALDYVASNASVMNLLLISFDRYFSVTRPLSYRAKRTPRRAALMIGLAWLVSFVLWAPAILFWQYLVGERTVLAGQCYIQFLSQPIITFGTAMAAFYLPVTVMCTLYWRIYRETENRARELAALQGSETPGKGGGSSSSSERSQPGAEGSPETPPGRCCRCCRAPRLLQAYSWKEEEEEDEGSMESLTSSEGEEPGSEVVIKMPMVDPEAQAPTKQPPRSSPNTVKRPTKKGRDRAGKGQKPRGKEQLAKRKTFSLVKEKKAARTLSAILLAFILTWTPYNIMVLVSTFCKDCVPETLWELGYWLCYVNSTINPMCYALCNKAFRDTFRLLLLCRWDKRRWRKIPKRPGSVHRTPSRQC

[2] = target: T2, human muscarinic M4 receptor (Homo sapiens, UniProt P08173); test: Alphascreen Surefire phospho-ERK1/2 functional assay, M4; format: cell-based; settings: for EC50: CHO cells stably expressing human M4, phospho-ERK1/2, * = variable results, read-out: pEC50 M4 (converted); for Emax: CHO, read-out: % Emax cf. ACh, M4, CHO cells stably expressing human M4, relative to ACh
T2 construct: expressed in transfected cells
T2 sequence (P08173 1-479): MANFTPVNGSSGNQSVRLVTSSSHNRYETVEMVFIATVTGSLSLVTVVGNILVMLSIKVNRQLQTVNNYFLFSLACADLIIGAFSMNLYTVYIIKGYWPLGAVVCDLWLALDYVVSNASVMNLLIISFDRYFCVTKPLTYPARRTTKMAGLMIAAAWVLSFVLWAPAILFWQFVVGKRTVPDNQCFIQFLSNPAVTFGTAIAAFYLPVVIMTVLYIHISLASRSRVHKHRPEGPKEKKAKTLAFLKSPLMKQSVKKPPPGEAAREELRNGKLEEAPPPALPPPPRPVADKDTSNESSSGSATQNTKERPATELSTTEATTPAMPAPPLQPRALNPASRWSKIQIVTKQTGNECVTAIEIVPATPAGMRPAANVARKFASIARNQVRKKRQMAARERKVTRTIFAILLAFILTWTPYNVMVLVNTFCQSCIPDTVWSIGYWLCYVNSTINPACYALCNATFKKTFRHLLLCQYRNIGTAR

[3] = target: T3, human muscarinic M2 receptor (Homo sapiens, UniProt P08172); test: Alphascreen Surefire phospho-ERK1/2 functional assay, M2; settings: for Emax: CHO, read-out: % Emax cf. ACh, M2, CHO cells stably expressing human M2, relative to ACh
T3 sequence (P08172 1-466): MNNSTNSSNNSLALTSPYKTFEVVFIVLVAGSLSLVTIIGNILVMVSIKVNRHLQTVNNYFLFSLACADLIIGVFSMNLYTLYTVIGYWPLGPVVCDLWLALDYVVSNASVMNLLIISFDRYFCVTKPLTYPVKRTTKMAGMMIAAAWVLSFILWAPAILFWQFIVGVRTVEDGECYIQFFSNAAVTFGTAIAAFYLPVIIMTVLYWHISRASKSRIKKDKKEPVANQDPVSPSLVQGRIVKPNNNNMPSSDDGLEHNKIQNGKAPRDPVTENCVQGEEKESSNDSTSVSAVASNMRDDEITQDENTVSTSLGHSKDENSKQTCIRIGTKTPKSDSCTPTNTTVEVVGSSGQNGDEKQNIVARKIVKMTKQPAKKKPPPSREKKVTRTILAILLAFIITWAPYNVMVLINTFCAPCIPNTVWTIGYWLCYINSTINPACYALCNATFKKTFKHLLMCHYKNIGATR
Experimental: CHO cells stably expressing the human muscarinic M1, M2, M3 or M4 receptor were plated (25K/well) onto 96-well tissue culture plates in MEM-alpha+10% dialysed FBS. Once adhered, cells were serum-starved overnight. Agonist stimulation was performed by the addition of 5 μL agonist to the cells for 5 min (37° C.). Media was removed and 50 μL of lysis buffer added. After 15 min, a 4 μL sample was transferred to 384-well plate and 7 μL of detection mixture added. Plates were incubated for 2 h with gentle agitation in the dark and then read on a PHERAstar plate reader.
pEC50 and Emax figures were calculated from the resulting data for each receptor subtype.

[4] = target: human muscarinic M3 receptor (Homo sapiens, UniProt P20309); test: Alphascreen Surefire phospho-ERK1/2 functional assay, M3; settings: for Emax: CHO, read-out: % Emax cf. ACh, M3, CHO cells stably expressing human M3, relative to ACh; for EC50: pEC50 M3, CHO cells stably expressing human M3, phospho-ERK1/2, * = variable results
human muscarinic M3 receptor, sequence (P20309 whole entry): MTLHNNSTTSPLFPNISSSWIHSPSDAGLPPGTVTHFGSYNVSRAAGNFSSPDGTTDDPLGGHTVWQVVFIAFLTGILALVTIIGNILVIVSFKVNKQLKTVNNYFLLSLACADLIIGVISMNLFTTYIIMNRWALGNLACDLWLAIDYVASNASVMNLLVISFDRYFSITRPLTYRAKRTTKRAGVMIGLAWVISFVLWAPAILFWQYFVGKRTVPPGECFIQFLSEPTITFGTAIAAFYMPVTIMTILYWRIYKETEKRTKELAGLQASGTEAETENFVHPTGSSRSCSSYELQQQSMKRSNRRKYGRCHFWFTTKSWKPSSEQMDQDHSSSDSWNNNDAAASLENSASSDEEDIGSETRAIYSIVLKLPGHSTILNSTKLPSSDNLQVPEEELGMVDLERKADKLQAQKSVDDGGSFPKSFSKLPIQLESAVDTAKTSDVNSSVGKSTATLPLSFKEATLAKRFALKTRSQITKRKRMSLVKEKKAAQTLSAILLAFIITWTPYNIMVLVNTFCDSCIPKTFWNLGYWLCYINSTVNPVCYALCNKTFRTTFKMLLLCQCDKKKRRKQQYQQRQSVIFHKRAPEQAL

| SMILES | EC50 [1] [nM] | Emax [1] [%] | EC50 [2] [nM] | Emax [2] [%] | EC50 [3] [µM] | Emax [3] [%] | Emax [4] [%] | EC50 [4] [µM] |
| --- | --- | --- | --- | --- | --- | --- | --- | --- |
| CCOC(=O)N1CCC2(CC(N3CCC(c4nccn4CC#N)CC3)C2)C1 (single isomer, unassigned) [1-52 Isomer 2, ethyl 2-{4-[1-(cyanomethyl)-1H-imidazol-2-yl]piperidin-1-yl}-6-azaspiro[3.4]octane-6-carboxylate] | 158 | 102 | 15.8 | 106 | > 20 | 15 | 20 | > 20 |
| CCOC(=O)N1CCC2(CC(N3CCC(c4nn(C)cc4C)CC3)C2)C1 (single isomer, unassigned) [1-56 Isomer 2, ethyl 2-[4-(1,4-dimethyl-1H-pyrazol-3-yl)piperidin-1-yl]-6-azaspiro[3.4]octane-6-carboxylate] | 1000 | 30 | 126 | 89 | > 20 | 0 | 3 | > 20 |
| COC(=O)N1CCC2(CC(N3CCC(c4c(C)cnn4C)CC3)C2)C1 (single isomer, unassigned) [1-57 Isomer 2, methyl 2-[4-(1,4-dimethyl-1H-pyrazol-5-yl)piperidin-1-yl]-6-azaspiro[3.4]octane-6-carboxylate] | 2000 | 63 | 126 | 69 | > 20 | 7 | 7 | > 20 |
| CCOC(=O)N1CCC2(CC(N3CCC(c4c(C)cnn4C)CC3)C2)C1 (single isomer, unassigned) [1-58 Isomer 2, ethyl 2-[4-(1,4-dimethyl-1H-pyrazol-5-yl)piperidin-1-yl]-6-azaspiro[3.4]octane-6-carboxylate] | 794 | 55 | 31.6 | 93 | > 20 | 13 | 2 | > 20 |
| CCOC(=O)N1CCC2(CC(N3CCC(n4nccn4)CC3)C2)C1 (single isomer, unassigned) [1-61 Isomer 2, ethyl 2-[4-(2H-1,2,3-triazol-2-yl)piperidin-1-yl]-6-azaspiro[3.4]octane-6-carboxylate] | 316 | 66 | 25.1 | 97 | > 20 | 1 | 2 | > 20 |
| CCOC(=O)N1CCC2(CC(N3CCC(C4CCCN4)CC3)C2)C1 (single isomer, unassigned) [2-1 Isomer 2, ethyl 2-[4-(pyrrolidin-2-yl)piperidin-1-yl]-6-azaspiro[3.4]octane-6-carboxylate] | > 20000 | 6 | 316 | 63 | > 20 |  |  | > 20 |
| CCOC(=O)N1CCC2(CC(N3CCC(C4CCCN4C=O)CC3)C2)C1 (single isomer, unassigned) [2-2 Isomer 2, ethyl 2-[4-(1-formylpyrrolidin-2-yl)piperidin-1-yl]-6-azaspiro[3.4]octane-6-carboxylate] | 794 | 39 | 63.1 | 79 | > 20 | 53 | 16 | > 20 |
| CCOC(=O)N1CCC2(CC(N3CCC(C4CCCN4C(C)=O)CC3)C2)C1 (single isomer, unassigned) [2-3 Isomer 2, ethyl 2-[4-(1-acetylpyrrolidin-2-yl)piperidin-1-yl]-6-azaspiro[3.4]octane-6-carboxylate] | 10000 | 32 | 50.1 | 89 | > 20 | 14 | 4 | > 20 |
